The values below are quoted from earlier work in patent US12472272B2, “Radiolabelled compounds for diagnosis or treatment of prostate-specific membrane antigen- expressing cancer” (PROVINCIAL HEALTH SERVICES AUTHORITY, priority 2019, dated 2025).

The subject of one series is tumor. The settings on record: Kuo et al. 2018, cited from earlier work.
For series [1], the system named is metastatic prostate cancer. The settings on record: cited from earlier work.

On to `O=C([O-])CN1CCN(CC(=O)[O-])CCN(CC(=O)NCC2CCC(C(=O)N[C@@H](Cc3ccc4ccccc4c3)C(=O)NCCCC[C@H](NC(=O)N[C@@H](CCC(=O)O)C(=O)O)C(=O)O)CC2)CCN(CC(=O)[O-])CC1.[177Lu+3]` (stereo partly shown) [^177Lu-PSMA-617], for which, in the series on tumor (120 h post-injection), the tumor uptake is roughly 8 % ID/g. The peaked tumor uptake with tumor (reported previously) is roughly 15 % ID/g. Besides, in series [1] (human, in vivo), the complete response rate is reported as less than 7%, the “patients with progressive disease after treatment” value was “up to 33%” and the side effects entry was “without severe side effects”. In series [1] (metastatic prostate cancer), the “patients having >50% reduction in PSA levels” value is reported as 32-60%. In series [1] (phase 2 Australian study, patients with measurable nodal or visceral disease), the objective response was 82%.
